{"source": "patent US8178554B2", "about": "“Heterocyclic compounds, their preparation and their use as medicaments, in particular as anti-bacterial agents” (priority 2000, dated 2012)", "type_in_all_cases": "cell-based", "key": {"S. aureus SG511": {"test_system": "S. aureus SG511", "assay": "In vitro activity, dilution in liquid medium, M.I.C. on S. aureus SG511", "details": "S. aureus SG511, code 011 HT3, incubation twenty-four hours at 37° C.", "description": "(§1) In vitro activity, method of dilution in liquid medium\n(§2) A series of tubes are prepared in which the same quantity of sterile nutritive medium is distributed. Increasing quantities of the product to be studied are distributed into each tube, then each tube is sown with a bacterial strain. After incubation for twenty-four hours in a heating chamber at 37° C., the growth inhibition is evaluated by transillumination, which allows the minimal inhibitory concentrations (M.I.C.) to be determined, expressed in μg/cml."}, "S. aureus Exp 54146": {"test_system": "S. aureus Exp 54146", "assay": "In vitro activity, dilution in liquid medium, M.I.C. on S. aureus Exp 54146", "details": "S. aureus Exp 54146, code 011UC4, incubation twenty-four hours at 37° C.", "description": "as §1, §2"}, "S. Pyogenes A561": {"test_system": "S. Pyogenes A561", "assay": "In vitro activity, dilution in liquid medium, M.I.C. on S. Pyogenes A561", "details": "S. Pyogenes A561, code 02A1UC1, incubation twenty-four hours at 37° C.", "description": "as §1, §2"}, "E. coli": {"test_system": "E. coli", "assay": "In vitro activity, dilution in liquid medium, M.I.C. on E. coli 250HT11", "details": "code 250HT11, incubation twenty-four hours at 37° C.", "description": "as §1, §2"}, "E. coli DC2 (permeable)": {"test_system": "E. coli DC2 (permeable)", "assay": "In vitro activity, dilution in liquid medium, M.I.C. on E. coli DC2 (permeable)", "details": "code 250HT6, incubation twenty-four hours at 37° C.", "description": "as §1, §2"}, "E. coli (hyperpermeable)": {"test_system": "E. coli (hyperpermeable)", "assay": "In vitro activity, dilution in liquid medium, M.I.C. on E. coli (hyperpermeable)", "details": "code 250IP5, incubation twenty-four hours at 37° C.", "description": "as §1, §2"}}, "data": [{"smiles": "NC(=O)CNC(=O)[C@H]1CC[C@@H]2CN1C(=O)N2OS(=O)(=O)[O-].[Na+]", "note": "(relative stereo) [Test A, Sodium salt of trans-N-(2-amino-2-oxoethyl)-7-oxo-6-(sulphooxy)-1,6-diazabicyclo[3,2,1]octane-2-carboxamide]", "values": [{"measurement": "M.I.C.", "setting": "S. aureus SG511", "result": ">160", "unit": "µg/mL"}, {"measurement": "M.I.C.", "setting": "S. aureus Exp 54146", "result": ">160", "unit": "µg/mL"}, {"measurement": "M.I.C.", "setting": "S. Pyogenes A561", "result": 160, "unit": "µg/mL"}, {"measurement": "M.I.C.", "setting": "E. coli", "result": 160, "unit": "µg/mL"}, {"measurement": "M.I.C.", "setting": "E. coli DC2 (permeable)", "result": 80, "unit": "µg/mL"}, {"measurement": "M.I.C.", "setting": "E. coli (hyperpermeable)", "result": 20, "unit": "µg/mL"}]}, {"smiles": "[NH-]C(=O)[C@H]1CC[C@@H]2CN1C(=O)N2OS(=O)(=O)[O-].[Na+].[Na+]", "note": "(relative stereo) [Test B, Sodium salt of trans-7-oxo-6-(sulphooxy)-1,6-diazabicyclo[3,2,1]octane-2-carboxamide]", "values": [{"measurement": "M.I.C.", "setting": "S. aureus SG511", "result": ">160", "unit": "µg/mL"}, {"measurement": "M.I.C.", "setting": "S. aureus Exp 54146", "result": ">160", "unit": "µg/mL"}, {"measurement": "M.I.C.", "setting": "S. Pyogenes A561", "result": ">160", "unit": "µg/mL"}, {"measurement": "M.I.C.", "setting": "E. coli", "result": 80, "unit": "µg/mL"}, {"measurement": "M.I.C.", "setting": "E. coli DC2 (permeable)", "result": 40, "unit": "µg/mL"}, {"measurement": "M.I.C.", "setting": "E. coli (hyperpermeable)", "result": 10, "unit": "µg/mL"}]}, {"smiles": "O=C(NCc1cccnc1)[C@H]1CC[C@@H]2CN1C(=O)N2OS(=O)(=O)[O-].[Na+]", "note": "(relative stereo) [Test C, Sodium salt of trans-7-oxo-N-(3-pyridinylmethyl)-6-(sulphooxy)-1,6-diazabicyclo[3,2,1] octane-2-carboxamide]", "values": [{"measurement": "M.I.C.", "setting": "S. aureus SG511", "result": ">80", "unit": "µg/mL"}, {"measurement": "M.I.C.", "setting": "S. aureus Exp 54146", "result": ">80", "unit": "µg/mL"}, {"measurement": "M.I.C.", "setting": "S. Pyogenes A561", "result": ">80", "unit": "µg/mL"}, {"measurement": "M.I.C.", "setting": "E. coli", "result": 20, "unit": "µg/mL"}, {"measurement": "M.I.C.", "setting": "E. coli DC2 (permeable)", "result": 20, "unit": "µg/mL"}, {"measurement": "M.I.C.", "setting": "E. coli (hyperpermeable)", "result": 5, "unit": "µg/mL"}]}, {"smiles": "O=C(NCc1ccncc1)[C@H]1CC[C@@H]2CN1C(=O)N2OS(=O)(=O)[O-].[Na+]", "note": "(relative stereo) [Test D, Sodium salt of trans-7-oxo-N-[(4-pyridinyl)methyl]-6-(sulphooxy)-1,6-diazabicyclo[3,2,1] octane-2-carboxamide]", "values": [{"measurement": "M.I.C.", "setting": "S. aureus SG511", "result": ">80", "unit": "µg/mL"}, {"measurement": "M.I.C.", "setting": "S. aureus Exp 54146", "result": ">80", "unit": "µg/mL"}, {"measurement": "M.I.C.", "setting": "S. Pyogenes A561", "result": ">80", "unit": "µg/mL"}, {"measurement": "M.I.C.", "setting": "E. coli", "result": 20, "unit": "µg/mL"}, {"measurement": "M.I.C.", "setting": "E. coli DC2 (permeable)", "result": 20, "unit": "µg/mL"}, {"measurement": "M.I.C.", "setting": "E. coli (hyperpermeable)", "result": 2.5, "unit": "µg/mL"}]}, {"smiles": "O=C(NCc1ccccc1)[C@H]1CC[C@@H]2CN1C(=O)N2OS(=O)(=O)[O-].[Na+]", "note": "(relative stereo) [Test E, Sodium salt of trans-7-oxo-N-(phenylmethyl)-6-(sulphooxy)-1,6-diazabicyclo[3,2,1]octane-2-carboxamide]", "values": [{"measurement": "M.I.C.", "setting": "S. aureus SG511", "result": 5, "unit": "µg/mL"}, {"measurement": "M.I.C.", "setting": "S. aureus Exp 54146", "result": 5, "unit": "µg/mL"}, {"measurement": "M.I.C.", "setting": "S. Pyogenes A561", "result": 1.2, "unit": "µg/mL"}, {"measurement": "M.I.C.", "setting": "E. coli", "result": ">80", "unit": "µg/mL"}, {"measurement": "M.I.C.", "setting": "E. coli DC2 (permeable)", "result": ">80", "unit": "µg/mL"}, {"measurement": "M.I.C.", "setting": "E. coli (hyperpermeable)", "result": 20, "unit": "µg/mL"}]}, {"smiles": "O=C(OCc1ccccc1)[C@H]1CC[C@@H]2CN1C(=O)N2OS(=O)(=O)[O-].[Na+]", "note": "(relative stereo) [Test F, Sodium salt of phenylmethyl trans-7-oxo-6-(sulphooxy)-1,6-diazabicyclo[3,2,1]octane-2-carboxylate]", "values": [{"measurement": "M.I.C.", "setting": "S. aureus SG511", "result": 160, "unit": "µg/mL"}, {"measurement": "M.I.C.", "setting": "S. aureus Exp 54146", "result": 160, "unit": "µg/mL"}]}]}
